Measured values: PubChem BioAssay AID977621 (Broad Institute, 2014)
Records with an inconclusive call do not appear. Calls of active or inactive are those of the source.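 The calls were made as follows: active = Wild-type ribosome reporter drop at least double the humanized mutant ribosome reporter drop, growth loss under a set limit; inconclusive = no clear call, values can overlap the other calls; inactive = the rest.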

Test system: E. coli wild-type GFP strain growth, fluorescence, 24 h
Experiment: wild-type E. coli growth inhibition versus H69 humanized strain – H69 mutant RFP, wild-type GFP, cherry-pick, dose response (AID 977621);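 also: wild-type GFP and H69 mutant RFP strains grown together 50/50 in each well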
[1] = E. coli mixed culture, 24 h, measured here: total growth OD600, test 2

SMILES: CS(=O)(=O)N(CC(=O)N1CCc2ccccc2C1)c1cccc(Br)c1
- AC50 [1]: > 100 µM

SMILES: Cc1cc(C)nc(SCc2cn3c(C)cccc3n2)n1
- AC50: > 100 µM (inactive)

SMILES: c1ccc(-n2c(SCc3nc(-c4cccs4)no3)nnc2-c2ccco2)cc1
- AC50: > 100 µM (inactive)
- AC50 [1]: 42.5 µM

SMILES: CCN(CC)CCN(C(=O)C1CCCCC1)c1nc2cc3c(cc2s1)OCO3
- AC50: > 100 µM (inactive)

SMILES: O=S1(=O)c2ccc(Br)cc2OCCC2CCCCN21 (configuration not stated)
- AC50: > 100 µM (inactive)
- AC50 [1]: > 100 µM

SMILES: COc1ccc(NS(=O)(=O)c2ccc(Oc3c(C#N)cccc3C#N)cc2)cc1
- AC50: > 100 µM (inactive)
- AC50 [1]: 27.5 µM

SMILES: COc1ccc(Cl)cc1NC(=O)C1Cc2ccccc2CN1S(C)(=O)=O (configuration not stated)
- AC50: > 100 µM (inactive)

SMILES: COc1ccccc1Cn1c(=S)[nH]c2ccccc2c1=O
- AC50: > 100 µM (inactive)

SMILES: CC(=O)Nc1cccc(NC(=O)CSc2ccc(-c3cccnc3)nn2)c1
- AC50: > 100 µM (inactive)
- AC50 [1]: 48.7 µM

SMILES: COc1ccccc1CC(=O)NCCc1c[nH]c2ccccc12
- AC50: > 100 µM (inactive)

SMILES: O=C1CSC(c2cccnc2)N1Cc1ccc(Cl)c(Cl)c1 (configuration not stated)
- AC50: > 100 µM (inactive)
- AC50 [1]: > 100 µM

SMILES: Cc1ccsc1C(=O)N1CCCC(C(=O)c2cc(F)ccc2F)C1 (configuration not stated)
- AC50: > 100 µM (inactive)
- AC50 [1]: > 100 µM

SMILES: Cc1nn2c(NCc3ccccn3)cc(C(C)C)nc2c1-c1ccccc1
- AC50: > 100 µM (inactive)

SMILES: O=C(Nc1ccccc1)N1CCCCN2[C@@H](CO)[C@H](c3ccc(Br)cc3)[C@@H]2C1
- AC50: > 100 µM (inactive)

SMILES: Cc1ccc(-n2nnnc2-c2ccccc2Br)cc1
- AC50: > 100 µM (inactive)
- AC50 [1]: 46 µM

SMILES: Cc1cccc(CSCC(=O)N2CCN(S(=O)(=O)c3ccccc3C#N)CC2)c1
- AC50: > 100 µM (inactive)

SMILES: Nc1c(C(=O)NCCN2CCOCC2)c2nc3ccccc3nc2n1Cc1ccccc1
- AC50: > 100 µM (inactive)
- AC50 (measured here: total growth OD600, test 2): > 100 µM

SMILES: COc1ccc(N(CCC(=O)O)S(=O)(=O)c2ccc(C)cc2C)cc1
- AC50 [1]: > 100 µM

SMILES: COc1ccc(OCC2c3cc(OC)c(OC)cc3CCN2C(=O)C(C)C)cc1 (configuration not stated)
- AC50: > 100 µM (inactive)

SMILES: CC1=Nc2cc(C(=O)NCC3CCCO3)ccc2Sc2ccc(Br)cc21 (configuration not stated)
- AC50: > 100 µM (inactive)

SMILES: O=S1(=O)N[C@H](Cc2ccccc2)COc2cc(N3CCSCC3)ccc21
- AC50 [1]: > 100 µM

SMILES: O=S(=O)(c1ccc(F)cc1)N1C[C@@H]2N[C@H](C1)C2c1ccc(/C=C/c2ccccc2)cc1 (some centres not stated)
- AC50 [1]: 41.3 µM

SMILES: O=S(=O)(c1ccccc1)N1CC[C@@H]2[C@H](CO)Nc3ccc(Br)cc3[C@@H]21
- AC50 [1]: 43.4 µM

SMILES: O=C(NCc1ccc(-c2nc3ccccc3s2)cc1)c1ccco1
- AC50: > 100 µM (inactive)

SMILES: CC(OC(=O)COc1ccccc1)C(=O)NC1CCCC1 (configuration not stated)
- AC50: > 100 µM (inactive)
- AC50 [1]: > 100 µM

SMILES: COC(=O)c1sc(-c2ccc(C(C)(C)C)cc2)cc1NC(=O)c1ccccc1C(=O)O
- AC50 [1]: > 100 µM

SMILES: COc1cccc(OC)c1OCCCOc1cccc2cccnc12
- AC50: > 100 µM (inactive)

SMILES: O=C(Cn1cnc2ccccc21)c1ccc(Br)cc1
- AC50: > 100 µM (inactive)

SMILES: O=C1OCCC1Sc1nc2ccccc2c(=O)n1Cc1ccccc1 (configuration not stated)
- AC50: > 100 µM (inactive)

SMILES: COc1ccc(-c2csc(NC(=O)c3ccoc3C)n2)cc1
- AC50: > 100 µM (inactive)
- AC50 [1]: 48.8 µM

SMILES: COc1cccc(NC(=O)COC(=O)Cc2ccc(Cl)cc2)c1
- AC50 [1]: > 100 µM

SMILES: Cc1ccc(C)c(N(CC(=O)NC2CCCC2)C(=O)c2oc(C(C)(C)C)cc2C)c1
- AC50: > 100 µM (inactive)
- AC50 [1]: > 100 µM

SMILES: O=C(CSc1nc2ccccc2[nH]1)Nc1cccc(S(=O)(=O)N2CCOCC2)c1
- AC50: > 100 µM (inactive)
- AC50 [1]: 33.9 µM

SMILES: Cc1nn(-c2ccccc2)c(C)c1CN(C)C(=O)c1ccc(S(=O)(=O)NCc2ccco2)cc1
- AC50: > 100 µM (inactive)

SMILES: CCSc1nc2ccccc2c(=O)n1Cc1ccc(F)cc1
- AC50: > 100 µM (inactive)
- AC50 [1]: 49.4 µM

SMILES: N#Cc1ccc(-c2ccc(C3[C@H]4CNC[C@@H]3N4S(=O)(=O)c3ccc(-c4ccccc4)cc3)cc2)cc1 (some centres not stated)
- AC50 [1]: > 100 µM

SMILES: CCC(=O)Nc1nc2c(OC)ccc(OC)c2s1
- AC50 [1]: > 100 µM

SMILES: CSc1ccccc1NC(=O)CN(C)CC(=O)c1c(C)[nH]c2ccccc12
- AC50: > 100 µM (inactive)
- AC50 [1]: 46.2 µM

SMILES: Cc1cccc(C)c1OCc1n[nH]c(=S)n1-c1ccccc1
- AC50: > 100 µM (inactive)
- AC50 [1]: 44.8 µM

SMILES: Cc1ccc(S(=O)(=O)Nc2ccc3c(c2)C(=O)N([C@H](C)CO)C[C@@H](C)[C@H](CN(C)C(=O)c2ccccc2)OCCCC[C@@H](C)O3)cc1
- AC50 [1]: > 100 µM

SMILES: O=C(CCc1ccccc1)Nc1sc2c(c1C(=O)O)CCCC2
- AC50: > 100 µM (inactive)

SMILES: Cc1ccc(N2C(=S)NC3c4cc(Cl)ccc4OC2(C)C3C(=O)N(C)C)cc1 (configuration not stated)
- AC50 [1]: > 100 µM

SMILES: O=C(NCCCCc1ccccc1)c1cccc(NC(=O)C2CCCCC2)c1
- AC50: > 100 µM (inactive)
- AC50 [1]: 46.8 µM

SMILES: O=C(NCCCN1CCOCC1)c1sc2cc([N+](=O)[O-])ccc2c1Cl
- AC50: > 100 µM (inactive)

SMILES: Cc1sc2ncn(CC(=O)Nc3ccccc3F)c(=O)c2c1-c1ccccc1
- AC50: > 100 µM (inactive)

SMILES: N#Cc1ccc(OCC(=O)N2CCN(S(=O)(=O)c3ccc(Cl)s3)CC2)cc1
- AC50: > 100 µM (inactive)

SMILES: O=C(CCCOc1ccc(Cl)cc1Cl)Nc1ccccc1C(=O)O
- AC50 [1]: 33.7 µM

SMILES: Cc1noc(C)c1NC(=O)Nc1ccc2c(c1)C(=O)N([C@H](C)CO)C[C@H](C)[C@H](CN(C)C(=O)Nc1ccc3c(c1)OCO3)OCCCC[C@@H](C)O2
- AC50 [1]: > 100 µM

SMILES: CC(C)CN1C(=O)c2ccc(C(=O)Nc3ccncc3)cc2C1=O
- AC50: > 100 µM (inactive)
- AC50 [1]: > 100 µM

SMILES: Cc1ccc(C2(c3noc(CN(C)Cc4cccnc4)n3)CCCC2)cc1
- AC50: > 100 µM (inactive)

SMILES: COc1ccc(C2=NN(C(=O)c3cccnc3)C(c3ccccc3)C2)cc1 (configuration not stated)
- AC50 [1]: 1.05 µM

SMILES: CN(Cc1ccccc1)C(=O)c1[nH]cnc1C(=O)NCc1ccccc1
- AC50: > 100 µM (inactive)
- AC50 [1]: > 100 µM

SMILES: CO[C@@H]1CN(C)C(=O)c2ccc(NC(=O)c3nc4ccccc4s3)cc2OC[C@@H](C)N(Cc2ccncc2)C[C@@H]1C
- AC50: 52 µM (inactive)

SMILES: CC(OC(=O)CCc1c[nH]c2ccccc12)C(=O)c1ccccc1 (configuration not stated)
- AC50: > 100 µM (inactive)
- AC50 [1]: 46.5 µM

SMILES: S=c1[nH]nc(-c2ccc(Br)cc2)n1-c1ccc2c(c1)OCCO2
- AC50: > 100 µM (inactive)

SMILES: COC(=O)CN1C(=S)N(c2ccc(Cl)cc2)C(=O)C1CC(=O)Nc1ccc(F)cc1 (configuration not stated)
- AC50: > 100 µM (inactive)
- AC50 [1]: > 100 µM

SMILES: Cc1cc(C(=O)OCC(=O)Nc2cccc(S(N)(=O)=O)c2)c2ccccc2n1
- AC50 [1]: > 100 µM

SMILES: Cn1cnc(CCNC(=O)C[C@H]2CC[C@@H]3[C@H](COC[C@H](O)CN3C(=O)Nc3ccc(Cl)cc3)O2)c1
- AC50: > 100 µM (inactive)

SMILES: COc1ccc(-c2cn3c(C)c(C(=O)Nc4cccc(C)n4)sc3n2)cc1
- AC50: > 100 µM (inactive)

SMILES: CCOc1ncccc1C(=O)OCC(=O)NCCCc1ccccc1
- AC50 [1]: > 100 µM

SMILES: Cc1cc(CNC(=O)COc2ccc(C)c(C)c2)c2ccccc2n1
- AC50: > 100 µM (inactive)

SMILES: CCCn1c(NCc2ccc3c(c2)OCO3)nc2ccccc21
- AC50: > 100 µM (inactive)
- AC50 [1]: 49.9 µM

SMILES: O=c1[nH]c(C2CCN(S(=O)(=O)c3ccc4c(c3)OCCO4)CC2)nc2c1nnn2Cc1ccccc1F
- AC50: > 100 µM (inactive)

SMILES: COc1ccc(NS(=O)(=O)c2cccc3ccccc23)cc1
- AC50 [1]: 33.7 µM

SMILES: O=C(COC(=O)c1ccc([N+](=O)[O-])o1)NC12CC3CC(CC(C3)C1)C2
- AC50: > 100 µM (inactive)
- AC50 [1]: > 100 µM

SMILES: COc1cc(C(F)(F)F)c(C(=O)N(C)Cc2ccc(Cl)c(Cl)c2)cn1
- AC50: > 100 µM (inactive)
- AC50 [1]: 44.6 µM

SMILES: NS(=O)(=O)c1cccc(NC(=O)CSc2nnc(-c3ccccc3F)n2C2CC2)c1
- AC50: > 100 µM (inactive)

SMILES: CC1CCCC(NC(=O)COC(=O)Cc2c[nH]c3ccccc23)C1C (configuration not stated)
- AC50 [1]: > 100 µM

SMILES: CN1OC[C@@H]2CN(C(=O)c3ccco3)[C@H](c3ccc(-c4ccc(C#N)cc4)cc3)C[C@@H]21
- AC50 [1]: > 100 µM

SMILES: O=C(CN1C(=O)c2ccccc2C1=O)Nc1cccc(S(=O)(=O)Nc2ccccc2Cl)c1
- AC50: > 100 µM (inactive)

SMILES: Cc1cc2nc(-c3ccc4c(c3)CCC4)ccn2n1
- AC50: > 100 µM (inactive)
- AC50 [1]: > 100 µM

SMILES: CCN(CC)S(=O)(=O)c1ccc(O)c(C(=O)OCC(=O)NC23CC4CC(CC(C4)C2)C3)c1
- AC50: > 100 µM (inactive)
- AC50 [1]: > 100 µM

SMILES: CCOC(=O)c1nc(C)sc1-c1ccnn1S(=O)(=O)c1ccc(C)cc1
- AC50: > 100 µM (inactive)

SMILES: Cc1c(C(=O)N(Cc2ccc(F)cc2)C2CCS(=O)(=O)C2)oc2ccccc12 (configuration not stated)
- AC50: > 100 µM (inactive)

SMILES: NC(=O)c1cc(NC(=O)c2cc(Br)c(Br)s2)cc(C(N)=O)c1
- AC50: > 100 µM (inactive)

SMILES: CCOC(=O)Cc1nnc(NC(=O)CSc2nc3ccccc3[nH]2)s1
- AC50: > 100 µM (inactive)

SMILES: CC(C)(C)c1ccc(CCC2OCC(CN3CCOCC3)O2)cc1 (configuration not stated)
- AC50: > 100 µM (inactive)

SMILES: NS(=O)(=O)c1cccc(NC(=O)CSc2nc3ccccc3n2-c2ccccc2)c1
- AC50: > 100 µM (inactive)
- AC50 [1]: 40.3 µM

SMILES: COc1ccccc1C1CCN(C(=O)c2ccco2)CC1
- AC50 [1]: > 100 µM

SMILES: Cc1ccc(NC(=O)C[n+]2cc(-c3ccccc3)n3c2CCC3)cc1
- AC50 [1]: > 100 µM

SMILES: NC(=O)c1nsc(C(=O)N(c2ccccc2F)C(C(=O)NCc2ccc(F)cc2)c2ccc(O)cc2)c1N (configuration not stated)
- AC50: > 100 µM (inactive)
- AC50 [1]: 47 µM

SMILES: Cc1cc(C)c(OCC(=O)OCC(=O)N2CCc3ccccc3C2)c(C)c1
- AC50: > 100 µM (inactive)
- AC50 [1]: > 100 µM

SMILES: Cc1cc(C)cc(NC(=O)c2cccc(NC(=O)c3ccco3)c2)c1
- AC50 [1]: 45.6 µM

SMILES: O=C1OC[C@@H]2CCCN2C(=O)[C@@H](CC(=O)N(CCO)Cc2ccccc2)C/C=C\C[C@H]1Cc1ccc(F)cc1
- AC50 [1]: > 100 µM

SMILES: CC(=O)NCCOc1nc(N2CCCCC2)nc(N2CCCCC2)n1
- AC50 [1]: > 100 µM

SMILES: O=C(COn1nnc2ccc(C(F)(F)F)cc21)Nc1c(Cl)cccc1Cl
- AC50: > 100 µM (inactive)

SMILES: CCN(CC(=O)Nc1ccccc1OC)CC(=O)Nc1c(Cl)ccc(C)c1Cl
- AC50: > 100 µM (inactive)

SMILES: Cc1nnc2sc(SCC(=O)Nc3ccc(Br)cc3)nn2c1=O
- AC50 [1]: > 100 µM

SMILES: O=C(c1cc(COc2c(F)cccc2F)on1)N1C[C@H]2CC[C@H]1C2
- AC50: > 100 µM (inactive)
